Reference: publication PMC11637378, “Optogenetic screening of MCT1 activity implicates a cluster of non-steroidal anti-inflammatory drugs (NSAIDs) as inhibitors of lactate transport” (PLOS ONE, 2024)
Where a name gives a salt, the structure may show the parent alone. Read-outs that look alike come from different tables or passages of the source.

Tests used:
parent strain (SAWy518) [1] = assay: microbe, parasite or virus in culture; design: species or system Saccharomyces cerevisiae SAWy518; Off-target growth counter-screen, OD600 as per cent of untreated wells, strain lacking MCT1; conditions: 18.5 h; sheet Primary Screen - final;; off-target growth of parent strain, about 18 h
Experimental: Cells were grown for 18 hours prior to OD measurement. Fill represents manual compound grouping based on compound class or target. OD600 is reported in Tecan units. […] The drug library used in this study for the initial screen and rescreen was provided by the Small Molecule Screening Center at Princeton University, through a collaboration with Dr. Hahn Kim. […] Follow-up analysis (IC50 determinations) on library compounds was performed using compounds purchased from outside sources. […] Stocks were then diluted 100-fold into media containing 0.01 OD600 inoculation of yeast, to achieve the final concentrations listed. Where compounds were added manually (for example 10 μM AZD3965 addition) stock concentrations were diluted by a factor of 100-fold regardless of scale, resulting in a final concentration of 1% v/v DMSO which is well tolerated by yeast.

parent strain (SAWy518) [2] = tested on: parent strain (SAWy518)

| Molecule | viability at 10 µM (parent strain (SAWy518) [1]) | OffScreen_percentage (parent strain (SAWy518) [2]) | Offscreen_18hr (parent strain (SAWy518) [2]) | Offscreen_24hr (parent strain (SAWy518) [2]) | Offscreen_42hr (parent strain (SAWy518) [2]) | Read_percentage (parent strain (SAWy518) [2]) | also measured |
| --- | --- | --- | --- | --- | --- | --- | --- |
| CCCc1c(-c2ccc(O)cc2)nn(-c2ccc(O)cc2)c1-c1ccc(O)cc1 | 99% |  |  |  |  |  |  |
| O=C1CC(c2ccc(O)cc2)Oc2ccccc21 (stereo not shown) | 90.8% |  |  |  |  |  |  |
| O=C(/C=C/c1ccc(O)cc1)c1ccccc1 [4-hydroxychalcone] | 104% |  |  |  |  |  |  |
| N#Cc1c(O)c2c(-c3ccc(-c4ccccc4O)cc3)csc2[nH]c1=O [A-769662] | 102% | 102.02 percentage | 0.8233 | 0.9004 | 0.9609 | 102.02 percentage |  |
| CCOC(=O)[C@H](C)C[C@@H](Cc1ccc(-c2ccccc2)cc1)NC(=O)CCC(=O)O [AHU377] | 105% | 104.585 percentage | 0.844 | 0.9243 | 0.9874 | 104.585 percentage |  |
| COc1ccc([C@@H](C)C(=O)c2ccc(O)cc2O)cc1 [Angolesin] | 95.7% | 95.7373 percentage | 0.7726 | 0.8843 | 0.9388 | 95.7373 percentage |  |
| O=c1cc(-c2ccc(O)cc2)oc2cc(O)cc(O)c12 [Apigenin] | 96.1% | 96.0843 percentage | 0.7754 | 0.8699 | 0.9646 | 96.0843 percentage |  |
| CC(C)(C)CC(C)(C)c1ccc(OCCOCC[N+](C)(C)Cc2ccccc2)cc1 [Benzethonium] | 95.2% | 95.2045 percentage | 0.7683 | 0.892 | 0.9542 | 95.2045 percentage |  |
| COc1ccc(-c2coc3cc(O)cc(O)c3c2=O)cc1 [Biochanin A] | 98.1% | 98.1165 percentage | 0.7918 | 0.8858 | 0.9431 | 98.1165 percentage |  |
| O=C(/C=C/c1ccc(O)cc1)CC(=O)/C=C/c1ccc(O)cc1 [Bisdemethoxycurcumin] | 99.4% | 99.4424 percentage | 0.8025 | 0.8965 | 0.9569 | 99.4424 percentage |  |
| CCOc1nc2cccc(C(=O)OC(C)OC(=O)OC3CCCCC3)c2n1Cc1ccc(-c2ccccc2-c2nnn[nH]2)cc1 (stereo not shown) [Candesartan Cilextil] | 98.1% | 98.0917 percentage | 0.7916 | 0.8922 | 0.95 | 98.0917 percentage |  |
| CC(C(=O)O)c1ccc2c(c1)[nH]c1ccc(Cl)cc12 (stereo not shown) [Carprofen] | 90.2% | 90.223 percentage | 0.7281 | 0.8523 | 0.8964 | 90.223 percentage |  |
| CC(C)(Oc1ccc(C2CC2(Cl)Cl)cc1)C(=O)O (stereo not shown) [Ciprofibrate] | 92.4% | 92.3916 percentage | 0.7456 | 0.866 | 0.9088 | 92.3916 percentage |  |
| C=CC(C1=CC(=O)C(OC)=CC1=O)c1ccc(O)cc1 (stereo not shown) [DALBERGIONE, 4-METHOXY-4'-HYDROXY-] | 102% |  |  |  |  |  |  |
| C=CC(C1=CC(=O)C=CC1=O)c1ccccc1 (stereo not shown) [Dalbergione] | 104% | 104.3 percentage | 0.8417 | 0.9214 | 0.9762 | 104.3 percentage |  |
| O=C(O)c1ccc(-n2nc(-c3ccccc3O)nc2-c2ccccc2O)cc1 [Deferasirox] | 96% | 95.9727 percentage | 0.7745 | 0.8724 | 0.9291 | 95.9727 percentage |  |
| COc1ccc2c(c1)OCc1c-2oc2cc(OC)ccc12 [Dehydrovariabilin] | 93.8% | 93.7794 percentage | 0.7568 | 0.8766 | 0.938 | 93.7794 percentage |  |
| N#CC(c1ccc(Cl)cc1)c1c(Cl)cc(-n2ncc(=O)[nH]c2=O)cc1Cl (stereo not shown) [Diclazuril] | 92.7% | 92.7138 percentage | 0.7482 | 0.8733 | 0.9299 | 92.7138 percentage |  |
| O=C(O)Cc1ccccc1Nc1c(Cl)cccc1Cl [Diclofenac] | 101% |  |  |  |  |  |  |
| C/C=C(/C(=C/C)c1ccc(O)cc1)c1ccc(O)cc1 [Dienestrol] | 99.3% | 99.2565 percentage | 0.801 | 0.8973 | 0.9599 | 99.2565 percentage |  |
| CC/C(=C(/CC)c1ccc(O)cc1)c1ccc(O)cc1 [Diethylstilbestrol] | 103% | 102.565 percentage | 0.8277 | 0.9171 | 0.9776 | 102.565 percentage |  |

| Molecule | viability at 10 µM (parent strain (SAWy518) [1]) | OffScreen_percentage (parent strain (SAWy518) [2]) | Offscreen_18hr (parent strain (SAWy518) [2]) | Offscreen_24hr (parent strain (SAWy518) [2]) | Offscreen_42hr (parent strain (SAWy518) [2]) | Read_percentage (parent strain (SAWy518) [2]) | also measured |
| --- | --- | --- | --- | --- | --- | --- | --- |
| O=C(O)c1ccccc1-c1c2cc(I)c(=O)c(I)c-2oc2c(I)c(O)c(I)cc12 [Erythrosine] | 101% |  |  |  |  |  |  |
| CC(Cc1ccc(O)c(O)c1)C(C)Cc1ccc(O)c(O)c1 (stereo not shown) [Nordihydroguaiaretic_acid] | 101% |  |  |  |  |  |  |
| CN1C(C(=O)Nc2ccccn2)=C(O)c2ccccc2S1(=O)=O [Piroxicam] | 95.2% |  |  |  |  |  |  |
| O=c1c(O)c(-c2ccc(O)c(O)c2)oc2cc(O)cc(O)c12 [Quercetin] | 96.1% |  |  |  |  |  |  |
| CS(=O)(=O)c1ccc(C2=C(c3ccccc3)C(=O)OC2)cc1 [Rofecoxib] | 104% |  |  |  |  |  |  |
| CC1=C(CC(=O)O)c2cc(F)ccc2/C1=C\c1ccc([S+](C)[O-])cc1 (stereo not shown) [Sulindac] | 103% |  |  |  |  |  |  |
| CCCCCCC(=O)OC1CC(C)(C)NC(C)(C)C1.Cl [TMPH hydrochloride, reference compound] |  |  |  |  |  |  | Offtarget (parent strain (SAWy518) [2]): NO; Offtarget_sub (parent strain (SAWy518) [2]): 0.4142 |
| CC(C)(C)C(=O)C(Oc1ccc(Cl)cc1)n1cncn1 (stereo not shown) [TRIADIMEFON] |  |  | 0.0626 | 0.0684 | 0.2136 |  |  |
| CSc1nc2cc(Cl)c(Oc3cccc(Cl)c3Cl)cc2[nH]1 [TRICLABENDAZOLE] |  |  | 0.3546 | 0.5896 | 0.8341 |  |  |
| CO[C@H]1C[C@@H]2CC[C@@H](C)[C@@](O)(O2)C(=O)C(=O)N2CCCC[C@H]2C(=O)O[C@H]([C@H](C)C[C@@H]2CC[C@@H](OC(=O)C(C)(CO)CO)[C@H](OC)C2)CC(=O)[C@H](C)/C=C(\C)[C@@H](O)[C@@H](OC)C(=O)[C@H](C)C[C@H](C)/C=C/C=C/C=C/1C [Temsirolimus] |  |  | 0.0544 | 0.0562 | 0.0968 |  |  |
| CN(C/C=C/C#CC(C)(C)C)Cc1cccc2ccccc12 [Terbinafine hydrochloride] |  |  | 0.3316 | 0.5468 | 0.9146 |  |  |
| CCN(CC)C(=S)SSC(=S)N(CC)CC [Tetraethylthiuram disulfide] |  |  | 0.0416 | 0.0418 | 0.0415 |  |  |
| Oc1cc(Cl)ccc1Oc1ccc(Cl)cc1Cl [Triclosan] |  |  | 0.1779 | 0.3017 | 0.8343 |  |  |
| COc1ccc2c(c1)CC[C@@H]1[C@@H]2CC[C@]2(C)[C@H](NCCCCCCN3C(=O)C=CC3=O)CC[C@@H]12 [U 73122] |  |  | 0.5917 | 0.8296 | 0.9704 |  |  |
| CCC[C@H](NC(=O)/C(C#N)=C/c1cccc(Br)n1)c1ccccc1 [WP1130] |  |  | 0.6544 | 0.8363 | 0.9253 |  |  |
| COCCN1C2=C(C(=O)c3ccccc3C2=O)N(Cc2cnccn2)C1C (stereo not shown) [YM155] | 104% |  |  |  |  |  |  |
| CC(C)N(CCC(=O)c1ccc2ccccc2c1)Cc1ccccc1.Cl [ZM 39923 HCl] |  |  | 0.0402 | 0.0403 | 0.0401 |  |  |
| O=c1[nH]c(=O)c2ccccc2o1 [pu-sc-0002 H19] |  |  |  |  |  |  | 18 hours (parent strain (SAWy518) [2]): 0.7281; 24 hours (parent strain (SAWy518) [2]): 0.8523; 48 hours (parent strain (SAWy518) [2]): 0.8964 |
| Erythrosine |  | 100.818 percentage | 0.8136 | 0.8985 | 0.9466 | 100.818 percentage |  |
| JAK3 Inhibitor VI |  |  |  |  |  |  | Offscreen_18hr (parent strain (SAWy518) [2]; parent strain growth reading, 18 hr): 0.0531; Offscreen_24hr (parent strain (SAWy518) [2]; parent strain growth reading, 24 hr): 0.0592; Offscreen_42hr (parent strain (SAWy518) [2]; parent strain growth reading, 42 hr): 0.0892 |
| OXYCLOZANIDE |  |  | 0.5071 | 0.6783 | 0.7815 |  |  |
